Data taken from PMC7345905, “Microbial Metabolite Urolithin B Inhibits Recombinant Human Monoamine Oxidase A Enzyme” (Metabolites, 2020).
Where “and” joins values, the source holds several entries; their conditions need not be identical. Equal values may be shown once. One block for each compound: values may come before it.

Experiments:
human recombinant MAO-A = molecular target: T1, human recombinant MAO-A (Homo sapiens, UniProt P21397); experiment: MAO-Glo MAO-A inhibition assay; assay type: biochemical; conditions: for IC50: 0–50 μM range, 160 µM substrate, 37 °C, 1 h, read-out: IC50 for MAO-A inhibitory activity; for MAO-A enzyme assay, Percent of control: N=1-3; for inhibition of MAO-A enzyme activity: compared to vehicle
T1 construct: purchased Sigma-Aldrich
T1 sequence (P21397 1-527): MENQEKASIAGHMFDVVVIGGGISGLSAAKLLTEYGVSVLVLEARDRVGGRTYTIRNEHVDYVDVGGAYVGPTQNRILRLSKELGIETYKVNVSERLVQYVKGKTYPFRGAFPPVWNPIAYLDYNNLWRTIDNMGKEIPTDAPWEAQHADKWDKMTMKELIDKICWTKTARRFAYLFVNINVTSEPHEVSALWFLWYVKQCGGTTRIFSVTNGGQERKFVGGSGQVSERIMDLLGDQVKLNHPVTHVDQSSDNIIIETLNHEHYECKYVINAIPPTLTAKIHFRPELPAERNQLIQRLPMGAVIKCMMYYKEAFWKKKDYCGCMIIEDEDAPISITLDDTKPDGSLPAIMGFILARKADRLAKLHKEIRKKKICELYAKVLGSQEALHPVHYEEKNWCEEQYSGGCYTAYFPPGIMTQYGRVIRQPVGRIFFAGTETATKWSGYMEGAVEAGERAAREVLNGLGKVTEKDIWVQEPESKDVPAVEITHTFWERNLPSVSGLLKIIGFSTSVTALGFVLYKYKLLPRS
Procedure: (§1) MAO inhibition assays were performed using a MAO-Glo™ Assay kit (Promega) according to the manufacturer’s instructions. Briefly, 1 µg of human recombinant MAO-A and MAO-B enzyme isoforms were incubated with 160 and 16 µM of MAO substrates, respectively. […] The enzyme reaction was quenched by the addition of a luciferin detection reagent. […] An equal volume of dimethyl sulfoxide (0.1%) was added to the enzyme assay as a control. After 1 h of incubation, the luminescence was measured with a multimode microplate reader (Synergy HT, BioTek, Winooski, VT, USA) to determine the MAO enzyme activities. Initially, the inhibition potential of all the test compounds was evaluated at a concentration of 100 μM. The control reaction (with no inhibitor) with vehicle (DMSO 0.1%) was set at 100% activity. To determine IC50 of the test compounds, the dose dependent enzyme assays were performed. We used range of 0.1 to 50 μM concentrations for MAO-A and 0.1 to 200 μM concentrations of test compounds for the MAO-B enzyme activities. The type of enzyme inhibition was determined using variable concentrations of MAO-A substrate (10–360 µM) and MAO-B substrate (2–64 µM) for the respective enzyme assay. […] A Lineweaver–Burk double reciprocal plot was generated, and the mode of inhibition was determined by visual examination of the plot. The slope of the reciprocal plots was plotted against the inhibitor concentrations and determined the x-axis intercept that represented the inhibitor constant, Ki value.

human recombinant MAO-B = molecular target: T2, human recombinant MAO-B (Homo sapiens, UniProt P27338); experiment: MAO-Glo MAO-B inhibition assay; assay type: biochemical; conditions: N=1-3
T2 construct: purchased Sigma-Aldrich
T2 sequence (P27338 1-520): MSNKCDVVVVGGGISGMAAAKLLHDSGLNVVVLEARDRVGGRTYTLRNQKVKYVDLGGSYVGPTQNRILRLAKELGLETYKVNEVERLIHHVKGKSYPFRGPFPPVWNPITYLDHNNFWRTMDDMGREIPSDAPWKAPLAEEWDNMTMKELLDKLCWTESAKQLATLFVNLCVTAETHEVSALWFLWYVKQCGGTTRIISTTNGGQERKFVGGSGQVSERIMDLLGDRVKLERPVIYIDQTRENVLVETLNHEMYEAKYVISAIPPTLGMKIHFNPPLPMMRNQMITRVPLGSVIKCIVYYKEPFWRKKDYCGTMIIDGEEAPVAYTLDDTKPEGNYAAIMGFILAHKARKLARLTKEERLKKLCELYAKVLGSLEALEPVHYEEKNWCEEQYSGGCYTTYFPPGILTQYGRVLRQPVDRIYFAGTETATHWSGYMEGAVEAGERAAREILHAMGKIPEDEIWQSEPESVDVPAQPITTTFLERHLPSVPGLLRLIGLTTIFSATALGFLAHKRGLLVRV
Procedure: as §1

- IC50 (human recombinant MAO-A): 5.88 ± 0.69 µM
- inhibition of MAO-A enzyme activity (human recombinant MAO-A; 100 µM): 86%
SMILES: O=c1oc2cc(O)ccc2c2ccc(O)cc12 [UA, urolithin-A]
- MAO-A enzyme assay, Percent of control (human recombinant MAO-A; 0.1 µM, listed as UroA): 103.587% of control and 97.8592% of control and 101.542% of control
- MAO-A enzyme assay, Percent of control (human recombinant MAO-A; 0.5 µM, listed as UroA): 95.9845% of control and 94.0414% of control and 95.8492% of control
- MAO-A enzyme assay, Percent of control (human recombinant MAO-A; 1 µM, listed as UroA): 62.4789% of control and 79.8224% of control and 85.3157% of control
- MAO-A enzyme assay, Percent of control (human recombinant MAO-A; 5 µM, listed as UroA): 59.251% of control and 60.0082% of control and 51.3175% of control
- MAO-A enzyme assay, Percent of control (human recombinant MAO-A; 10 µM, listed as UroA): 48.1185% of control and 46.1024% of control and 43.7898% of control
- MAO-A enzyme assay, Percent of control (human recombinant MAO-A; 25 µM, listed as UroA): 24.6659% of control and 27.2749% of control and 27.3403% of control
- MAO-A enzyme assay, Percent of control (human recombinant MAO-A; 50 µM, listed as UroA): 13.9758% of control and 16.0253% of control and 16.3887% of control
- MAO-A enzyme assay, Percent of control (human recombinant MAO-A; 100 µM (Figure 1A), listed as UroA, 100 µM): 13.2811% of control and 14.5442% of control and 14.4558% of control
- MAO-B enzyme assay, Percent of control (human recombinant MAO-B; 0.1 µM, listed as UroA): 100.912% of control and 101.373% of control and 99.9795% of control
- MAO-B enzyme assay, Percent of control (human recombinant MAO-B; 1 µM, listed as UroA): 93.9146% of control and 96.8343% of control and 95.7816% of control
- MAO-B enzyme assay, Percent of control (human recombinant MAO-B; 10 µM, listed as UroA): 91.0665% of control and 92.3573% of control and 93.7097% of control
- MAO-B enzyme assay, Percent of control (human recombinant MAO-B; 25 µM, listed as UroA): 94.1092% of control and 90.4928% of control
- MAO-B enzyme assay, Percent of control (human recombinant MAO-B; 50 µM, listed as UroA): 81.2724% of control and 83.4341% of control and 89.5093% of control
- MAO-B enzyme assay, Percent of control (human recombinant MAO-B; 100 µM (Figure 1C), listed as UroA, 100 µM): 76.7559% of control and 78.826% of control and 78.8568% of control
- MAO-B enzyme assay, Percent of control (human recombinant MAO-B; 100 µM, listed as UroA): 71.1402% of control and 80.3709% of control and 83.4443% of control
- MAO-B enzyme assay, Percent of control (human recombinant MAO-B; 200 µM, listed as UroA): 40.5081% of control and 42.2805% of control and 48.6733% of control

- IC50 (human recombinant MAO-A): 29.6 ± 1.8 µM
- inhibition of MAO-A enzyme activity (human recombinant MAO-A; 100 µM): 88%
SMILES: O=c1oc2cc(O)ccc2c2cc(O)c(O)cc12 [UC, urolithin-C]
- MAO-A enzyme assay, Percent of control (human recombinant MAO-A; 0.1 µM, listed as UroC): 81.5785% of control and 83.2586% of control and 93.5154% of control
- MAO-A enzyme assay, Percent of control (human recombinant MAO-A; 0.5 µM, listed as UroC): 88.4995% of control and 88.7443% of control and 76.6736% of control
- MAO-A enzyme assay, Percent of control (human recombinant MAO-A; 1 µM, listed as UroC): 95.9222% of control and 92.2777% of control and 91.5145% of control
- MAO-A enzyme assay, Percent of control (human recombinant MAO-A; 5 µM, listed as UroC): 81.1285% of control and 71.4874% of control and 89.8253% of control
- MAO-A enzyme assay, Percent of control (human recombinant MAO-A; 10 µM, listed as UroC): 68.5636% of control and 69.9396% of control and 63.7804% of control
- MAO-A enzyme assay, Percent of control (human recombinant MAO-A; 25 µM, listed as UroC): 64.6896% of control and 58.5532% of control and 52.6539% of control
- MAO-A enzyme assay, Percent of control (human recombinant MAO-A; 50 µM, listed as UroC): 46.6421% of control and 44.3022% of control and 44.6686% of control
- MAO-A enzyme assay, Percent of control (human recombinant MAO-A; 100 µM (Figure 1A), listed as UroC, 100 µM): 11.345% of control and 12.577% of control and 11.352% of control
- MAO-B enzyme assay, Percent of control (human recombinant MAO-B; 0.1 µM, listed as UroC): 110.306% of control and 101.117% of control and 109.128% of control
- MAO-B enzyme assay, Percent of control (human recombinant MAO-B; 1 µM, listed as UroC): 102.407% of control and 98.5247% of control and 98.1149% of control
- MAO-B enzyme assay, Percent of control (human recombinant MAO-B; 10 µM, listed as UroC): 102.182% of control and 94.8161% of control and 92.9925% of control
- MAO-B enzyme assay, Percent of control (human recombinant MAO-B; 25 µM, listed as UroC): 89.5195% of control and 89.6937% of control and 94.0068% of control
- MAO-B enzyme assay, Percent of control (human recombinant MAO-B; 50 µM, listed as UroC): 87.5627% of control and 83.096% of control and 84.7864% of control
- MAO-B enzyme assay, Percent of control (human recombinant MAO-B; 100 µM (Figure 1C), listed as UroC, 100 µM): 86.1998% of control and 88.2904% of control and 90.5046% of control
- MAO-B enzyme assay, Percent of control (human recombinant MAO-B; 100 µM, listed as UroC): 82.8808% of control and 77.9531% of control and 81.7949% of control
- MAO-B enzyme assay, Percent of control (human recombinant MAO-B; 200 µM, listed as UroC): 43.4074% of control and 44.8007% of control and 46.1838% of control

- IC50 (human recombinant MAO-A): 0.88 µM
- inhibition of MAO-A enzyme activity (human recombinant MAO-A; 100 µM): 94%
SMILES: O=c1oc2cc(O)ccc2c2ccccc12 [UB, urolithin-B]
- MAO-A enzyme assay, Percent of control (human recombinant MAO-A; 0.1 µM, listed as UroB): 101.662% of control and 98.0675% of control and 93.5275% of control
- MAO-A enzyme assay, Percent of control (human recombinant MAO-A; 0.5 µM, listed as UroB): 64.4524% of control and 74.8902% of control and 80.9217% of control
- MAO-A enzyme assay, Percent of control (human recombinant MAO-A; 1 µM, listed as UroB): 51.8207% of control and 51.0498% of control and 41.9972% of control
- MAO-A enzyme assay, Percent of control (human recombinant MAO-A; 5 µM, listed as UroB): 37.9544% of control and 37.4055% of control and 33.2487% of control
- MAO-A enzyme assay, Percent of control (human recombinant MAO-A; 10 µM, listed as UroB): 21.8683% of control and 19.2684% of control and 22.2499% of control
- MAO-A enzyme assay, Percent of control (human recombinant MAO-A; 25 µM, listed as UroB): 10.1321% of control and 11.7696% of control and 12.9039% of control
- MAO-A enzyme assay, Percent of control (human recombinant MAO-A; 50 µM, listed as UroB): 6.787% of control and 6.156% of control and 5.227% of control
- MAO-A enzyme assay, Percent of control (human recombinant MAO-A; 100 µM (Figure 1A), listed as UroB, 100 µM): 5.573% of control and 6.858% of control and 6.006% of control
- MAO-B enzyme assay, Percent of control (human recombinant MAO-B; 0.1 µM, listed as UroB): 107.968% of control and 101.629% of control and 95.3271% of control
- MAO-B enzyme assay, Percent of control (human recombinant MAO-B; 1 µM, listed as UroB): 109.561% of control and 99.5806% of control and 93.6856% of control
- MAO-B enzyme assay, Percent of control (human recombinant MAO-B; 10 µM, listed as UroB): 97.6995% of control and 92.8109% of control and 92.0441% of control
- MAO-B enzyme assay, Percent of control (human recombinant MAO-B; 25 µM, listed as UroB): 95.5787% of control and 94.7999% of control and 85.3343% of control
- MAO-B enzyme assay, Percent of control (human recombinant MAO-B; 50 µM, listed as UroB): 93.9851% of control and 85.8855% of control and 84.5675% of control
- MAO-B enzyme assay, Percent of control (human recombinant MAO-B; 100 µM (Figure 1C), listed as UroB, 100 µM): 92.2554% of control and 86.0762% of control and 81.4109% of control
- MAO-B enzyme assay, Percent of control (human recombinant MAO-B; 100 µM, listed as UroB): 74.6465% of control and 81.8955% of control and 81.8476% of control
- MAO-B enzyme assay, Percent of control (human recombinant MAO-B; 200 µM, listed as UroB): 35.5859% of control and 42.116% of control and 26.5397% of control
